Experimental data as given in patent US20100120752A1, “MUSCARINIC AGONISTS TO TREAT IMPULSE CONTROL DISORDERS” (Solvay Pharmaceuticals, B.V., priority 2007, published 2010).

Key:
[1] = tested on: MK801 induced increase of anticipatory responses of rats; assay: 5-Choice Serial Reaction Time task, interaction studies against MK801; type: in vivo, rat; conditions: for % correct resp / nr anticipatory resp / nr of correct resp / nr of fault resp / nr of missed resp / persevering resp / total nr of resp: ±SEM
Excerpt: (§1) Male Wistar rats weighing 330-450 g (Harlan, The Netherlands) were housed in pairs under a 12-h light/dark cycle (lights off at 7:00 a.m.) and had daily access to a limited amount of food that kept their body weight at approximately 85% of the free feeding weight. Water was available ad libitum. All procedures were in compliance with the European Communities Council Directive of Nov. 24, 1986 (86/609 EEC).
(§2) Standard 5-CSRT boxes from MED associates Inc. Georgia, Vt. US were used. The curved wall of the chamber contained five 1.6 cm2 holes, 2.2 cm deep, 2 cm above floor level. […] In every hole a yellow stimulus light was presented. A food dispenser was located at the opposite wall. The box was illuminated by a 28 Volt 100 mA house light. The 5-CSRT boxes were placed in sound attenuating cubicles. On-line control of the apparatus and data collection were performed by a MED-PC experimental apparatus programming system (Tatham, 1989), running on a Dell Optiplex GX1 PC.
(§3) Rats were first trained to collect reinforcement pellets from the food dispenser and to collect reinforcements that were placed in the 5 holes in order to habituate the animals to the 5-CSRT task apparatus. Next, training of the 5-CSRT task started. These sessions started by illumination of the light in one of the holes for 30 seconds (stimulus duration). A response by the rat into the illuminated hole or a response in that particular hole for a short period of time after the illumination (the limited hold 60 sec) was rewarded with the delivery of a food pellet, termination of the trial and a correct response was recorded. The light stimulus was presented in each of the holes 20 times during a session (total of 100 presentations), and the order of presentations was randomized. […] After termination of the trial a variable inter-trial interval was started (1, 3, 5, 7 or 9 sec) after which the next trial was started. Upon reaching a 75% correct performance level the duration of illumination of the light stimulus was reduced until a presentation of 0.5 sec (from 30 to 20, 10, 5, 2, 1, 0.9; 0.8; 0.7; 0.6; 0.5.) and a limited hold of 5 sec (in three steps from 30 to 20, 10 and 5 sec), was reached. (Robbins, 1993).
(§4) The following parameters were measured (Muir, 1996):
(§5) Accuracy: the percentage correct responses divided by the total responses made.
(§6) Errors of omission: the number of missed stimulus presentations.
(§7) Correct responses: the number of correct responses.
(§8) Fault responses: the number of responses in the wrong hole.
(§9) Anticipatory responses: the number of premature responses made preceding the presentation of the light stimulus.
(§10) Persevering responses: responses emitted after an incorrect or correct response.
Both xanomeline and desmethylclozapine were each tested in the same dose range against 0.05 mg/kg (s.c.) MK801, a dose shown to elicit unequivocal impulsive behavior (see Table 1).

Male Wistar rats = assay: 5-Choice Serial Reaction Time task, xanomeline or desmethylclozapine alone; type: in vivo, rat; conditions: for number of anticipatory responses / number of correct responses / number of fault responses / number of missed responses / percentage of correct responses / persevering responses / total number of responses: ±S.E.M.
Excerpt: as §1, §2, §3, §4, §5, §6, §7, §8, §9, §10
Xanomeline, a mixed muscarine-M1 and muscarine-M4 agonist, and desmethylclozapine, a muscarinic-M1 agonist and muscarinic-M4 antagonist, were each tested in a Latin hexagon design, meaning that each rat received all test-dosages (0, 1, 3 and 10 mg/kg i.p.) in a random order.

[2] = 1 mg/kg against 0.05 mg/kg (s.c.) MK801
[3] = 3 mg/kg against 0.05 mg/kg (s.c.) MK801
[4] = 10 mg/kg against 0.05 mg/kg (s.c.) MK801

For `CCCCCCOc1nsnc1C1=CCCN(C)C1` [xanomeline], the “% correct resp” value [1, 2] was 70.2 ± 3.8%, the nr anticipatory resp [1, 2] was 75.3 ± 10.5 and the “nr of correct resp” value [1, 2] was 58.7 ± 4.4. For the same compound, the “nr of fault resp” value [1, 2] was 23.8 ± 2.4, the “nr of missed resp” value [1, 2] was 17.6 ± 3.1 and the persevering resp [1, 2] was 15.3 ± 2.5. The “total nr of resp” value [1, 2] was 82.4 ± 3.1, the “% correct resp” value [1, 3] was 71.6 ± 2.4% and the nr anticipatory resp [1, 3] was 99.3 ± 11.1. The “nr of correct resp” value [1, 3] was 57.4 ± 2.7, the “nr of fault resp” value [1, 3] was 22.7 ± 1.9 and the “nr of missed resp” value [1, 3] was 19.9 ± 2.4. The persevering resp [1, 3] was 14.1 ± 3.5, the “total nr of resp” value [1, 3] was 80.1 ± 2.4 and the “% correct resp” value [1, 4] was 74.4 ± 2.8%. The nr anticipatory resp [1, 4] was 47.5 ± 8.4, the “nr of correct resp” value [1, 4] was 50.9 ± 2.4 and the “nr of fault resp” value [1, 4] was 18.0 ± 2.2. For the same compound, the “nr of missed resp” value [1, 4] was 31.1 ± 3.0, the persevering resp [1, 4] was 8.5 ± 1.1 and the “total nr of resp” value [1, 4] was 68.9 ± 3.0. For the same compound, the “effect on increase in anticipatory responses induced by MK801” value ([1]; table 3) was “antagonize”, the “effect on increase in persevering responses induced by MK801” value ([1]; table 3) was “antagonize” and the “number of anticipatory responses” value (Male Wistar rats; 1 mg/kg i.p.) was 58.0 ± 7.9. The “number of correct responses” value (Male Wistar rats; 1 mg/kg i.p.) was 53.0 ± 2.4, the “number of fault responses” value (Male Wistar rats; 1 mg/kg i.p.) was 22.7 ± 1.6 and the “number of missed responses” value (Male Wistar rats; 1 mg/kg i.p.) was 24.3 ± 2.4. The “percentage of correct responses” value (Male Wistar rats; 1 mg/kg i.p.) was 70.0 ± 2.1%, the persevering responses (Male Wistar rats; 1 mg/kg i.p.) was 6.3 ± 1.1 and the “total number of responses” value (Male Wistar rats; 1 mg/kg i.p.) was 75.1 ± 2.4. The “number of anticipatory responses” value (Male Wistar rats; 3 mg/kg i.p.) was 60.8 ± 4.9, the “number of correct responses” value (Male Wistar rats; 3 mg/kg i.p.) was 51.2 ± 2.5 and the “number of fault responses” value (Male Wistar rats; 3 mg/kg i.p.) was 21.7 ± 1.8. The “number of missed responses” value (Male Wistar rats; 3 mg/kg i.p.) was 27.2 ± 2.2, the “percentage of correct responses” value (Male Wistar rats; 3 mg/kg i.p.) was 70.2 ± 2.5% and the persevering responses (Male Wistar rats; 3 mg/kg i.p.) was 6.7 ± 1.4. For the same compound, the “total number of responses” value (Male Wistar rats; 3 mg/kg i.p.) was 72.8 ± 2.2, the “number of anticipatory responses” value (Male Wistar rats; 10 mg/kg i.p.) was 21.5 ± 6.4 and the “number of correct responses” value (Male Wistar rats; 10 mg/kg i.p.) was 37.2 ± 2.6. For the same compound, the “number of fault responses” value (Male Wistar rats; 10 mg/kg i.p.) was 15.0 ± 1.8, the “number of missed responses” value (Male Wistar rats; 10 mg/kg i.p.) was 46.8 ± 3.7 and the “percentage of correct responses” value (Male Wistar rats; 10 mg/kg i.p.) was 72.1 ± 2.3%. For the same compound, the persevering responses (Male Wistar rats; 10 mg/kg i.p.) was 4.9 ± 0.9, the “total number of responses” value (Male Wistar rats; 10 mg/kg i.p.) was 53.2 ± 3.7 and the “effect on number of anticipatory responses” value (Male Wistar rats; at 10 mg/kg, table 2) was “reduced”.
